According to patent US11839212B2, “Synergistic pesticidal compositions and methods for delivery of insecticidal active ingredients” (0903608 B.C. Ltd., priority 2018, dated 2023):
Read-outs that look alike come from different tables or passages of the source.

Assays:
Assay in all cases: Synergistic Growth Inhibition Assay (MIC and FIC index, 96-well, resazurin)
Type in all cases: cell-based
Fusarium oxysporum = settings: for MIC: Fusarium oxysporum
Method: (§1) In some embodiments, the synergistic action between the pesticidal active ingredient, and the at least one C6-C10 (or alternatively C11 or C12) saturated or unsaturated aliphatic acid components of the pesticidal compositions according to embodiments of the present disclosure was tested using a Synergistic Growth Inhibition Assay, which is derived from and related to a checkerboard assay as is known in the art for testing of combinations of antimicrobial agents. In the Synergistic Growth Inhibition Assay used in accordance with some embodiments of the present disclosure, multiple dilutions of combinations of pesticidal active ingredient and at least one C6-C10 saturated or unsaturated aliphatic acid agents are tested in individual cells for inhibitory activity against a target pest or pathogenic organism. In one such embodiment, the combinations of pesticidal active ingredient and C6-C10 (or alternatively C11 or C12) saturated or unsaturated aliphatic acid agents may preferably be tested in decreasing concentrations. In a further such embodiment, the combinations of pesticidal active ingredient and C6-C10 (or alternatively C11 or C12) saturated or unsaturated aliphatic acid agents may be tested in increasing concentrations. These multiple combinations of the pesticidal active ingredient and at least one C6-C10 (or alternatively C11 or C12) saturated or unsaturated aliphatic acid agents may be prepared in 96-well microtiter plates. In one such embodiment, the Synergistic Growth Inhibition Assay then comprises rows which each contain progressively decreasing concentrations of the pesticidal active ingredient and one or more C6-C10 (or alternatively C11 or C12) saturated or unsaturated aliphatic acid agents to test for the MIC of the agents in combination at which growth of the target pest or pathogen is inhibited. Thus, each well of the microtiter plate is a unique combination of the two agents, at which inhibitory efficacy of the combination against the target pest or pathogen can be determined.
(§2) In one embodiment according to the present disclosure, for each row of microtiter cells in the Synergistic Growth Inhibition Assay, the FIC index is calculated from the lowest concentration of the pesticidal active ingredient and one or more C6-C10 saturated or unsaturated aliphatic acid agents necessary to inhibit growth of a target pest or pathogen. The FIC of each component is derived by dividing the concentration of the agent present in that well of the microtiter plate by the minimal inhibitory concentration (MIC) needed of that agent alone to inhibit growth of the target pest or pathogen. The FIC index is then the sum of these values for both agents in that well of the microtiter plate. […] Fractional inhibitory concentration indices may then used as measure of synergy. […] When the FIC index is equal to 1, the combination is additive.
(§3) Then, serial dilutions of these initial compositions in successive wells in the row of the microtiter plate were used to assay the pesticidal composition under the same conditions to determine the concentration of the composition combining the two agents corresponding to the microtiter well in which growth inhibition of the target pest or organism ceases.
Resazurin dye (also known as Alamar blue dye) was used as an indicator to determine the presence of growth or inhibition of growth of Fusarium oxysporum in the wells of the 96 well microtiter plates used in the exemplary Synergistic Growth Inhibition Assay. In addition to the color change of the resazurin dye in the presence of growth of the Fusarium oxysporum, an optical or visual examination of the microtiter well may also be made to additionally determine the presence of growth or inhibition of growth of the Fusarium oxysporum.

Botrytis cinerea = settings: for MIC: Botrytis cinerea, 48 h
Method: as §1, §2, §3
(§4) Similarly to as described above, Resazurin was used as an indicator of growth or inhibition of growth of Botrytis cinerea in the exemplary Synergistic Growth Inhibition Assay. In addition to the color change of the resazurin, an optical or visual examination of the microtiter well may also be made to additionally determine the presence of growth or inhibition of growth of the Botrytis cinerea.

Sclerotinia sclerotiorum = settings: for MIC: Sclerotinia sclerotiorum
Method: as §1, §2, §3
as §4, with “Sclerotinia sclerotiorum” for “Botrytis cinerea”, “Sclerotinia sclerotiorum.” for “Botrytis cinerea.”

[1] = Table 20B, Compound A alone, incubation 7 days, read-out: MIC (A)
[2] = Table 23, Compound A alone, incubation 48 hours, read-out: MIC (A)
[3] = 48 h, Table 15B, Compound A alone, incubation 48 hours, read-out: MIC (A)

CO/C=C(/C(=O)OC)c1ccccc1Oc1cc(Oc2ccccc2C#N)ncn1 [Azoxystrobin, reference compound]
MIC (A) (Fusarium oxysporum; Table 11, Compound A alone, incubation 48 hours): 75 µg/mL | MIC (A) (Fusarium oxysporum; Table 15B, Compound A alone, incubation 48 hours): 150 µg/mL | MIC (A) (Fusarium oxysporum; Table 28, Compound A alone, 48 hours incubation): 150 µg/mL | MIC (A) (Botrytis cinerea; Table 23, Compound A alone, incubation 48 hours): 75 µg/mL | MIC (A) (Botrytis cinerea; Table 45, Compound A alone, 48 hours incubation): 75 µg/mL | MIC (A) (Sclerotinia sclerotiorum; Table 17, Compound A alone, incubation 7 days): 150 µg/mL | MIC (A) (Sclerotinia sclerotiorum; Table 20B, Compound A alone, incubation 7 days): 75 µg/mL | MIC (A) (Sclerotinia sclerotiorum; Table 35, Compound A alone, 7 days incubation): 150 µg/mL

N#Cc1c(Cl)c(Cl)c(Cl)c(C#N)c1Cl [Chlorothalonil, reference compound]
MIC (Fusarium oxysporum; 48 h, Table 12, Compound A alone, incubation 48 hours, read-out: MIC (A)): 0.125 µg/mL | MIC (Botrytis cinerea; Table 46, Compound A alone, 48 hours incubation, read-out: MIC (A)): 0.0176 µg/mL | MIC (Sclerotinia sclerotiorum; [1]): 0.0312 µg/mL | MIC (Sclerotinia sclerotiorum; Table 36, Compound A alone, 7 days incubation, read-out: MIC (A)): 0.0312 µg/mL

Cc1cc(C2CC2)nc(Nc2ccccc2)n1 [Cyprodinil, reference compound]
MIC (Fusarium oxysporum; 48 h, Table 13, Compound A alone, incubation 48 hours, read-out: MIC (A)): 9 µg/mL | MIC (Fusarium oxysporum; 48 h, Table 29, Compound A alone, 48 hours incubation, read-out: MIC (A)): 9 µg/mL | MIC (Botrytis cinerea; [2]): 4.5 µg/mL | MIC (Botrytis cinerea; Table 26, Compound A alone, 48 hours incubation, read-out: MIC (A)): 4.5 µg/mL | MIC (Botrytis cinerea; Table 47, Compound A alone, 48 hours incubation, read-out: MIC (A)): 4.5 µg/mL | MIC (Sclerotinia sclerotiorum; [1]): […]

CC1COC(Cn2cncn2)(c2ccc(Oc3ccc(Cl)cc3)cc2Cl)O1 (stereo not shown) [Difenoconazole, reference compound]
MIC (Fusarium oxysporum; 48 h, Table 14, Compound A alone, incubation 48 hours, read-out: MIC (A)): 51 µg/mL | MIC (Fusarium oxysporum; [3]): 51 µg/mL | MIC (Fusarium oxysporum; 48 h, Table 30, Compound A alone, 48 hours incubation, read-out: MIC (A)): 51 µg/mL | MIC (Botrytis cinerea; Table 24, Compound A alone, 48 hours incubation, read-out: MIC (A)): 51 µg/mL | MIC (Sclerotinia sclerotiorum; Table 20A, Compound A alone, incubation 7 days, read-out: MIC (A)): 12.8 µg/mL | MIC (Sclerotinia sclerotiorum; [1]): 25.5 µg/mL | MIC (Sclerotinia sclerotiorum; Table 38, Compound A alone, 7 days incubation, read-out: MIC (A)): 25.5 µg/mL

COC(=O)N(OC)c1ccccc1COc1ccn(-c2ccc(Cl)cc2)n1 [Pyraclostrobin, pyraclostrobin, reference compound]
MIC (Fusarium oxysporum; 24 h, Table 1, Compound A alone, 24 hour incubation, read-out: MIC(A)): 15.4 µg/mL | MIC (Fusarium oxysporum; 48 h, Table 10, Compound A alone, incubation 48 hours, read-out: MIC (A)): 15 µg/mL | MIC (Fusarium oxysporum; [3]): 15 µg/mL | MIC (Fusarium oxysporum; 48 h, Table 27, Compound A alone, 48 hours incubation, read-out: MIC (A)): 15 µg/mL | MIC (Botrytis cinerea; Table 21, Compound A alone, incubation 48 hours, read-out: MIC (A)): 1.9 µg/mL | MIC (Botrytis cinerea; [2]): 3.75 µg/mL | MIC (Botrytis cinerea; Table 43, Compound A alone, 48 hours incubation, read-out: MIC (A)): 1.88 µg/mL | MIC (Botrytis cinerea; Table 44, Compound A alone, 48 hours incubation, read-out: MIC (A)): 1.88 µg/mL | MIC (Sclerotinia sclerotiorum; Table 16, Compound A alone, incubation 7 days, read-out: MIC (A)): 7.5 µg/mL | MIC (Sclerotinia sclerotiorum; [1]): 3.75 µg/mL | MIC (Sclerotinia sclerotiorum; Table 33, Compound A alone, 7 days incubation, read-out: MIC (A)): 7.5 µg/mL | MIC (Sclerotinia sclerotiorum; Table 34, Compound A alone, 7 days incubation, read-out: MIC (A)): 3.75 µg/mL

CC(C)(C)C(O)(CCc1ccc(Cl)cc1)Cn1cncn1 (stereo not shown) [Tebuconazole, reference compound]
MIC (Fusarium oxysporum; 48 h, Table 15A, Compound A alone, incubation 48 hours, read-out: MIC (A)): 255 µg/mL | MIC (Fusarium oxysporum; [3]): 225 µg/mL | MIC (Fusarium oxysporum; 48 h, Table 32, Compound A alone, 48 hours incubation, read-out: MIC (A)): 225 µg/mL | MIC (Botrytis cinerea; [2]): 112 µg/mL | MIC (Botrytis cinerea; Table 25, Compound A alone, 48 hours incubation, read-out: MIC (A)): 112 µg/mL | MIC (Botrytis cinerea; Table 50, Compound A alone, 48 hours incubation, read-out: MIC (A)): 112 µg/mL | MIC (Sclerotinia sclerotiorum; Table 19, Compound A alone, incubation 7 days, read-out: MIC (A)): 225 µg/mL | MIC (Sclerotinia sclerotiorum; [1]): 56.2 µg/mL | MIC (Sclerotinia sclerotiorum; Table 41, Compound A alone, 7 days incubation, read-out: MIC (A)): 112 µg/mL | MIC (Sclerotinia sclerotiorum; Table 42, Compound A alone, incubation 7 days, read-out: MIC (A)): 112 µg/mL

CCC/C=C/C(=O)O [Trans-2-hexenoic acid, trans-2-hexenoic acid]
MIC (Fusarium oxysporum; 24 h, Table 1, Compound B alone, 24 hour incubation, read-out: MIC(B)): 312 µg/mL | MIC (Fusarium oxysporum; 24 h, Table 2, Compound B alone, 24 hour incubation, read-out: MIC (B)): 312 µg/mL | MIC (Botrytis cinerea; Table 43, Compound B alone, 48 hours incubation, read-out: MIC (B)): 78.1 µg/mL | MIC (Botrytis cinerea; Table 44, Compound B alone, 48 hours incubation, read-out: MIC (B)): 39.1 µg/mL | MIC (Botrytis cinerea; Table 45, Compound B alone, 48 hours incubation, read-out: MIC (B)): 156 µg/mL | MIC (Botrytis cinerea; Table 52, Compound B alone, 48 hours incubation, read-out: MIC(B)): 156 µg/mL | MIC (Botrytis cinerea; Table 56, Compound B alone, 48 hours incubation, read-out: MIC (B)): 312 µg/mL | MIC (Sclerotinia sclerotiorum; Table 33, Compound B alone, 7 days incubation, read-out: MIC (B)): 156 µg/mL
